Results as given in patent US7557129B2, “Cyanopyridine derivatives useful in the treatment of cancer and other disorders” (Bayer Healthcare LLC, priority 2003, dated 2009).

SMILES	melting point
N#Cc1cc(Oc2ccc(NC(=O)Nc3ccc4c(c3)C(F)(F)OC(F)(F)O4)c(C(F)(F)F)c2)ccn1 [Entry 128, {[4-(2-cyano(4-pyridyloxy))-2-(trifluoromethyl)phenyl]amino}-N-(2,2,4,4-tetrafluorobenzo[3,4-e]1,3-dioxan-6-yl)carboxamide]	220 to 221 °C
CSc1cc(Oc2ccnc(C#N)c2)ccc1NC(=O)Nc1ccc2c(c1)C(F)(F)OC(F)(F)O2 [Entry 140, {[4-(2-cyano(4-pyridyl)oxy)-2-methylthiophenyl]amino}-N-(2,2,4,4-tetrafluorobenzo[3,4-e]1,3-dioxan-6-yl)carboxamide]	183 to 185 °C
N#Cc1cc(Oc2ccc(NC(=O)Nc3ccc4c(c3)OC(F)(F)O4)cc2F)ccn1 [Entry 113, N-(2,2-difluorobenzo[d]1,3-dioxolan-5-yl){[4-(2-cyano(4-pyridyloxy))-3-fluorophenyl]amino}carboxamide]	193.5 to 194.5 °C
N#Cc1cc(Oc2ccc(NC(=O)Nc3ccc4c(c3)OC(F)(F)O4)cc2)ccn1 [Entry 109, N-(2,2-difluorobenzo[d]1,3-dioxolan-5-yl){[4-(2-cyano(4-pyridyloxy))phenyl]amino}carboxamide]	199 to 200 °C
N#Cc1cc(Oc2ccc(NC(=O)Nc3ccc4c(c3)C(F)(F)OC(F)(F)O4)c(F)c2F)ccn1 [Entry 129, {[4-(2-cyano(4-pyridyloxy))-2,3-difluorophenyl]amino}-N-(2,2,4,4-tetrafluorobenzo[3,4-e]1,3-dioxan-6-yl)carboxamide]	181 to 182 °C
CS(=O)(=O)c1cc(Oc2ccnc(C#N)c2)ccc1NC(=O)Nc1ccc2c(c1)C(F)(F)OC(F)(F)O2 [Entry 141, {[4-(2-cyano(4-pyridyl)oxy)-2-(methylsulfonyl)phenyl]amino}-N-(2,2,4,4-tetrafluorobenzo[3,4-e]1,3-dioxan-6-yl)carboxamide]	229 to 230 °C
N#Cc1cc(Oc2ccc(NC(=O)Nc3ccc4c(c3)C(F)(F)OC(F)(F)O4)c(F)c2)ccn1 [Entry 124, {[4-(2-cyano(4-pyridyloxy))-2-fluorophenyl]amino}-N-(2,2,4,4-tetrafluorobenzo[3,4-e]1,3-dioxan-6-yl)carboxamide]	169 to 171 °C
N#Cc1cc(Oc2ccc(NC(=O)Nc3ccc4c(c3)C(F)(F)OC(F)(F)O4)cc2F)ccn1 [Entry 127, {[4-(2-cyano(4-pyridyloxy))-3-fluorophenyl]amino}-N-(2,2,4,4-tetrafluorobenzo[3,4-e]1,3-dioxan-6-yl)carboxamide]	196 to 199.5 °C

Now from value to compound:

melting point	SMILES
209 to 210 °C	CCc1ccnc(NC(=O)Nc2ccc(Oc3ccnc(C#N)c3)cc2)c1 [Entry 153, {[4-(2-cyano(4-pyridyloxy))phenyl]amino}-N-(4-ethyl(2-pyridyl))carboxamide]
208 to 212 °C	N#Cc1cc(Oc2ccc(NC(=O)Nc3cc4ccccc4cn3)cc2)ccn1 [Entry 159, {[4-(2-cyano(4-pyridyloxy))phenyl]amino}-N-(3-isoquinolyl)carboxamide]
218 to 220 °C	N#Cc1cc(Oc2ccc(NC(=O)Nc3cc4ccccc4cn3)c(F)c2)ccn1 [Entry 160, {[4-(2-cyano(4-pyridyloxy))-2-fluorophenyl]amino}-N-(3-isoquinolyl)carboxamide]
202 °C	N#Cc1cc(Oc2ccc(NC(=O)Nc3cc(C(F)(F)F)ccn3)cc2)ccn1 [Entry 152, {[4-(2-cyano(4-pyridyloxy))phenyl]amino}-N-[4-(trifluoromethyl)(2-pyridyl)]carboxamide]
216 to 217 °C	CC(C)(C)c1ccnc(NC(=O)Nc2ccc(Oc3ccnc(C#N)c3)cc2)c1 [Entry 143, N-[4-(tert-butyl)(2-pyridyl)]{[4-(2-cyano(4-pyridyloxy))phenyl]amino}carboxamide]
209 to 210.5 °C	N#Cc1cc(Oc2ccc(NC(=O)Nc3cc(C(F)(F)F)ccn3)c(C(F)(F)F)c2)ccn1 [Entry 150, {[4-(2-cyano(4-pyridyloxy))-2-(trifluoromethyl)phenyl]amino}-N-[4-(trifluoromethyl)(2-pyridyl)]carboxamide]
192 to 193 °C	N#Cc1cc(Oc2ccc(NC(=O)Nc3ccnc(C(F)(F)F)c3)c(F)c2)ccn1 [Entry 142, {[4-(2-cyano(4-pyridyloxy))-2-fluorophenyl]amino}-N-[2-(trifluoromethyl)(4-pyridyl)]carboxamide]
239 to 240 °C	Cn1ncc2cc(NC(=O)Nc3ccc(Oc4ccnc(C#N)c4)cc3C(F)(F)F)ccc21 [Entry 165, {[4-(2-cyano(4-pyridyloxy))-2-(trifluoromethyl)phenyl]amino}-N-(1-methyl(1H-indazol-5-yl))carboxamide]
245.5 °C	Cc1ccc2cc(NC(=O)Nc3ccc(Oc4ccnc(C#N)c4)cc3)ccc2n1 [Entry 154, {[4-(2-cyano(4-pyridyloxy))phenyl]amino}-N-(2-methyl(6-quinolyl))carboxamide]
